Test results: patent US9067928B2 (Genentech, Inc., priority 2008, dated 2015)

Assays:
Bcl-xL [1] = biological target: T1, Bcl-xL (Homo sapiens, UniProt Q07817); test: TR-FRET binding assay, competition with F-Bak for Bcl-xL binding site; conditions: GST-Bcl-xL, F-Bak probe
T1 construct: made in house
Experimental: The measurement of competition of compounds of the invention with F-Bak for a Bcl-2 family protein (Bcl-xL) binding site using a Time Resolved Fluorescence Resonance Energy Transfer (TR-FRET) Binding Assay:
(§1) Test compounds were serially diluted in DMSO starting at 50 μM (2× starting concentration; 10% DMSO) and 10 μL transferred into a 384-well plate.
(§2) The samples are then mixed on a shaker for 1 minute then incubated for an additional 2 hours at room temperature. For each assay plate, a probe/antibody and protein/antibody/probe mixture were included as a negative and a positive control, respectively. Fluorescence was measured on the Envision (Perkin Elmer) using a 340/35 nm excitation filter and 520/525 (F-Bak) and 495/510 nm (Tb-labeled anti-his antibody) emission filters. Dissociation constants (Ki) were determined using Wang's equation (see, Wang, Z. X. An exact mathematical expression for describing competitive binding of two different ligands to a protein molecule. FEBS Lett. 1995 360:111-114). The TR-FRET assay can be performed in the presence of varying concentrations of human serum (HS) or fetal bovine serum (FBS).

Bcl-xL [2] = biological target: T1, Bcl-xL; test: Alpha Screen Bcl-xL binding assay, competition with Bim26-mer; conditions: values listed in the order of Table 1; read-out: Alphascreen results (IC50)
Experimental: The measurement of competition of compounds of the invention with Bim26-mer for a Bcl-2 family protein binding site using an Alpha Screen Bcl-xL Binding Assay:
The BH3 proteins ALPHASCREEN™ assay was used to identify active small molecules Bcl-2 family protein screen. e.g., Bcl-xL, hmMcl-1 screen. To determine an accurate estimation of the IC50, the compounds were routinely tested at starting concentrations, 100 μM and/or 1 μM and serially titrated 3 fold over 11 dilutions.
The beads come in close proximity when the protein and the peptides interact. Donor beads contain a photosensitiser that converts oxygen to an excited form of O2 at an excitation of 680 nm. Energy is transformed from the singlet oxygen and reacts with chemiluminescers on the acceptor bead, resulting in light emission at 520-620 nm. […] With this information, the IC50 of each compound was calculated
GST-Bcl-xL, GST-hmMcl-1 and biotinylated GST proteins were prepared in-house and were stored as stock solutions at −80° C. The biotinylated-Bak, and biotinylated-Bim peptides were purchased from Auspep and were stored as 500 μM stock solutions in 100% DMSO at −80° C. The ALPHASCREEN™ GST (Glutathione-S-Transferase) Detection Kit was obtained from Perkin Elmer Lifesciences (Cat #6760603R). The Proxiplates, white 384 well flat-Bottom plates were purchased from Interpath Services, Melbourne (Cat #784075). The seals to cover the plates were purchased from Proscience. Melbourne (Cat#784075). DMSO was purchased from AnalaR. The 384 deep well plates and the Polypropylene 50 μL, V bottom polypropylene compound plates were purchased from Matrical.
Compounds of the invention were prepared as 10 mM stocks with 100% DMSO on the day prior to performing the assay. […] To achieve a final compound concentration of 1 μM, in a separate matrical plate, 28 μL of 100% DMSO and 2 μL of 10 mM compound was added to a well, mixed well. 2 μL of this solution was taken and added to 38 μL of 100% DMSO. 20 μL of this solution was added to the test matrical plate. Several control compounds were included in the test plates. For the control wells 15 μL 100% DMSO only was added to the appropriate wells of each plate. The compound plates were then serially diluted 2 fold using the MiniTrak. Once titrations were complete, the compound plate was immediately covered with a foil seal to prevent evaporation.
The assay and bead buffers were prepared fresh. Each titrated compound plate was assayed in duplicate. The following volumes were sufficient to run 12 Proxiplates (4 assay plates run in duplicate in each of Bclxl, hmMcl and counter assays)
Protein and Peptide Preparation; and Assay Performance • 1. The assay and bead buffers were used to prepare the acceptor and donor solutions. ALPHASCREEN™ beads are light sensitive and therefore prepared in a darkened room. 2.5 μL of beads were added per 1 mL of buffer. • 2. The volume of protein or peptide to add was calculated using the following formula:
[formula] • C1=Final Concentration of protein/peptide • C2=Stock Concentration of protein/peptide • V1=Total Volume of Acceptor/Donor Solution • V2=Volume of stock protein/Peptide to add to Acceptor/Donor solution • 3. The assay components were prepared as separate Acceptor and Donor Solutions. The Acceptor Solution contained Acceptor heads and target protein, while the Donor Solution contained Donor beads and biotinylated peptide.
• 4. After the solutions were prepared, they were left to incubate for 30 minutes at room temperature to allow the beads to bind to the protein and the peptide. • 5. 50 μL of Bcl-xL solution, 50 μL of hmMcl-1 solution and 50 µL of biotinylated-GST were added into separate deep wells on an assay plate. A control […]. Assay/Bead buffer was added separate well plates (no protein). • 6.

Bcl-2 = biological target: T2, Bcl-2 (Homo sapiens, UniProt P10415); test: TR-FRET binding assay, competition with F-Bak for Bcl-2 binding site; conditions: GST-Bcl-2, F-Bak probe
T2 construct: made in house
Experimental: as §1, §2
For comparison, the measurement of the competition of compounds of the invention for other Bcl-2 family protein binding sites (e.g., Bcl-2, Mcl-1) using the TR-FRET binding assay was accomplish by substituting GST-Bcl-xL in the TR-FRET assay with other GST-labeled protein, e.g. GST-Bcl-2, GST-Mcl-1 prepared in-house.
For comparison, data (Ki in micromolar) from the measurement of the competition by certain compounds of the invention (i.e., compounds 1, 28, 38, 63, 71, 75, 80, 81, 92 and 94 in Table 1) with F-Bak for the Bcl-2 binding site using the TR-FRET binding assay are, 1.2, 0.15, 0.01, 0.018, 0.50, 0.272, 0.167, 0.66, 0.23 and 0.000003 respectively.

[3] = test system: Mcl-1-/- mouse embryonic fibroblasts (MEF); test: Cell viability assay for Mcl-1-/- mouse embryonic fibroblasts (CellTiter-Glo); type: cell-based; conditions: Fibroblast, 1% Fetal Bovine Serum, read-out: MEF Mcl-1-/- KO cell viability results (EC50)
Description: a. Cell Viability Assay for Mcl-1^−/− Mouse Embryonic Fibroblasts (MEF):
Neutralization of both […] and Mcl-1 anti-apoptotic proteins in normal cells is required before a cell undergoes apoptosis via the downstream Bax/Bak pathway See, Chen. L. et al. Mol. Cell (2005) 17, 393-403; Willis, S. N. et al. Genes Dev. (2005) 19, 1294-1305. A compound that only targets Bcl-xL should not affect normal cells, but could kill certain cancer cells if they rely more on Bcl-xL and less on other anti-apoptotic proteins, e.g. Mcl-1, for survival. To mirror this, compounds of the invention were tested for its effect on survival of wild type (wt) mouse embryo fibroblasts (MEFs), Bax/Bak double knockout (BB DKO) MEFs, MEFs that expressed Noxa, and MEFs that expressed Bad. Noxa specifically neutralizes Mcl-1. […] MEFs that express Noxa mirror cancer cell types that are reliant on Bcl-xL for survival and should be much more sensitive to killing by a Bcl-xL targeting compound than MEFs where both Bcl-xL and Mcl-1 are protective.
In this assay, Mcl-1^(−/−) cells were used to confirm that cell apoptosis in the presence of BH3 mimetic small molecules was due to predominantly Bcl-xL inactivation. This inactivation leaves Bax/Bak unconstrained and results in apoptosis. The […]-GLO Luminescent Cell Viability Assay is a homogeneous method of determining the number of viable cells in culture based on quantitation of the ATP present. The amount of ATP correlates with the presence of metabolically active cells such that following cell lysis the amount of ATP present is proportional to the amount of luminescence measured.
Mcl-1^(−/−) mouse embryonic fibroblasts (MEFs) are an adherent cell line prepared in house. MEFs were grown in Iwaki 75 cm^2 tissue culture flasks (cat #3123-075) with FMA media which consists of: • 89% DME Kelso • 10% heat-inactivated foetal calf serum (FCS) (Hyclone cat #SH30396.03) • 1% 10 mM asparagine (Fluka cat #11149) • 275 μl of a 1:2000 dilution of 2-mercaptoethanol is added to the final 500 ml volume of FMA (Sigma cat #M7522; diluted in MT-PBS)
FMA was stored at 4° C. and used at 37° C. MEFs were cultured in FMA media and harvested in MT-PBS and trypsin. For MEF cell viability assays, cells were seeded separately in plates with 10% FCS-FMA and 1% FCS-FMA. […]
Automated Systems that can be used in this assay include: 1) Multidrop—The MULTIDROP 384 (ThermoLabsystems) dispenser was used to dispense cells aseptically into the assay plates: 2) MiniTrak—The […] system from Perkin Elmer was used for titration of the compound plates; 3) Zymark—The ZYMARK SCICLONE ALH3000 System with 100 nL pintool head was used for compound addition to the cells; 4) EnVision—The ENVISION plate reader was used to measure the viability via the detection of the luminescence. […]

T1 sequence (Q07817 whole entry, species assumed): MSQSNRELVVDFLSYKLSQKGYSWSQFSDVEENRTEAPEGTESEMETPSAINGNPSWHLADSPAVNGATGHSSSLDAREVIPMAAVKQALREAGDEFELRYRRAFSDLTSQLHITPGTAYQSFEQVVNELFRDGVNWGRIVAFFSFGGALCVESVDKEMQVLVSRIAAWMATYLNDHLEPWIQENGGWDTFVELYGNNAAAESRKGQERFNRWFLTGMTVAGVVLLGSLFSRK
T2 sequence (P10415 whole entry, species assumed): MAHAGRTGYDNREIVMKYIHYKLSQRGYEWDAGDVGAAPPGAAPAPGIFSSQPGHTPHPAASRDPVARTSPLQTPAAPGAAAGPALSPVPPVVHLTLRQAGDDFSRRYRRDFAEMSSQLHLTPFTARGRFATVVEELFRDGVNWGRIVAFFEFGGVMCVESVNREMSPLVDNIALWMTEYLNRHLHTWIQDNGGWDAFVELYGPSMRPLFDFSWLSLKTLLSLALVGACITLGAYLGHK

| SMILES | Ki (Bcl-xL [1]) [nM] | IC50 (Bcl-xL [2]) [nM] | Ki (Bcl-2) [nM] | EC50 [3] [nM] |
| --- | --- | --- | --- | --- |
| O=C(O)c1csc(-c2ccc3c(c2)N(C(=O)Nc2nc4ccccc4s2)CCC3)n1 [Example 1] | 197 | 360 | 1200 |  |
| O=C(O)c1nc(-c2ccc3c(c2)N(C(=O)Nc2nc4ccccc4s2)CCC3)sc1Oc1ccccc1 [Example 63, 2-(1-(benzo[d]thiazol-2-ylcarbamoyl)-1,2,3,4-tetrahydroquinolin-7-yl)-5-phenoxythiazole-4-carboxylic acid] | 12 | 50 | 18 |  |
| O=C(O)c1ccc(-c2sc(-c3ccc4c(c3)N(C(=O)Nc3nc5ccccc5s3)CCO4)nc2C(=O)O)cc1 [Example 68, 2-(4-(benzo[d]thiazol-2-ylcarbamoyl)-3,4-dihydro-2H-benzo[b][1,4]oxazin-6-yl)-5-(4-carboxyphenyl)thiazole-4-carboxylic acid] | 470 | 540 |  |  |
| COc1ccc(-c2sc(-c3ccc4c(c3)N(C(=O)Nc3nc5ccccc5s3)CCC4)nc2C(=O)O)cc1 [Example 71, 2-(1-(benzo[d]thiazol-2-ylcarbamoyl)-1,2,3,4-tetrahydroquinolin-7-yl)-5-(4-methoxyphenyl)thiazole-4-carboxylic acid] | 7 | 40 | 500 |  |
| O=C(O)c1nc(-c2ccc3c(c2)N(C(=O)Nc2nc4ccccc4s2)CCC3)sc1/C=C/c1ccccc1 [Example 74, (E)-2-(1-(benzo[d]thiazol-2-ylcarbamoyl)-1,2,3,4-tetrahydroquinolin-7-yl)-5-styrythiazole-4-carboxylic acid] |  | 3 |  | 60 |
| CCOc1ccc(-c2sc(-c3ccc4c(c3)N(C(=O)Nc3nc5ccccc5s3)CCC4)nc2C(=O)O)cc1 [Example 75, 2-(1-(benzo[d]thiazol-2-ylcarbamoyl)-1,2,3,4-tetrahydroquinolin-7-yl)-5-(4-ethoxyphenyl)thiazole-4-carboxylic acid] | 1 | 7 | 272 |  |
| CC(C)Oc1ccc(-c2sc(-c3ccc4c(c3)N(C(=O)Nc3nc5ccccc5s3)CCC4)nc2C(=O)O)cc1F [Example 80, 2-(1-(benzo[d]thiazol-2-ylcarbamoyl)-1,2,3,4-tetrahydroquinolin-7-yl)-5-(3-fluoro-4-isopropoxyphenyl)thiazole-4-carboxylic acid] | 0.7 | 6 | 167 |  |
| COc1ccc(-c2sc(-c3ccc4c(c3)N(C(=O)Nc3nc5ccccc5s3)CCC4)nc2C(=O)N(C)C)cc1 [Example 81, 2-(1-(benzo[d]thiazol-2-ylcarbamoyl)-1,2,3,4-tetrahydroquinolin-7-yl)-5-(4-methoxyphenyl)-N,N-dimethylthiazole-4-carboxamide] | 660 | 380 | 660 |  |
| O=C(O)c1nc(-c2ccc3c(c2)N(C(=O)Nc2nc4ccccc4s2)CCC3)sc1CCCOc1ccc(-n2ncc3cncnc32)cc1 [Example 94, 5-(3-(4-(1H-pyrazolo[3,4-d]pyrimidin-1-yl)phenoxy)propyl)-2-(1-(benzo[d]thiazol-2-ylcarbamoyl)-1,2,3,4-tetrahydroquinolin-7-yl)thiazole-4-carboxylic acid] | 0.003 | 0.5 | 0.003 |  |
